Reference: patent US10981894B2, “Melanocortin subtype-2 receptor (MC2R) antagonists and uses thereof” (Crinetics Pharmaceuticals, Inc., priority 2018, dated 2021)
pKi: −log10 of the molar value.

Target: hMC2 receptor (Homo sapiens, UniProt Q01718)
Assay: hMC2 membrane binding assay ([125I]ACTH (1-39) Tyr23, SPA)
Set-up: scale not given here
Conditions: crude hMC2R membranes from CRE-bla-CHO-K1 cells expressing hMC2 receptor and hMRAP; [125I]ACTH (1-39) Tyr23 0.2 nM; 1.5 hours at room temperature; read-out: MC2R binding potency
In short: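 CRE-bla-CHO-K1 membranes co-expressing hMC2 receptor and hMRAP, preincubated with WGA PVT SPA beads in pH 7.4 HEPES/MgCl2/CaCl2/0.2% BSA buffer. Compounds (typically 0–10,000 nM final) compete with 0.2 nM [125I]ACTH(1-39) Tyr23 for 1.5 h at room temperature. SPA counts give Ki by non-linear regression.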

Chain of hMC2 receptor (Q01718 whole entry): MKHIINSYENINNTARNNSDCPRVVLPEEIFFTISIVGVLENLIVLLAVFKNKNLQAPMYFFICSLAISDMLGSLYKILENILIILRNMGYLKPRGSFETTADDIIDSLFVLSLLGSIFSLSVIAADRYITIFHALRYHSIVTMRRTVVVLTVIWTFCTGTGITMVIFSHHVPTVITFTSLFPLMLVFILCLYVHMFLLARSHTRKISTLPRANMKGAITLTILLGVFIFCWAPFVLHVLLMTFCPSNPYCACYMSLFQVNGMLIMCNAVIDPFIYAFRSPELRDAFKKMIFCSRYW
Chain of hMC2 receptor (Q8TCY5 whole entry partner): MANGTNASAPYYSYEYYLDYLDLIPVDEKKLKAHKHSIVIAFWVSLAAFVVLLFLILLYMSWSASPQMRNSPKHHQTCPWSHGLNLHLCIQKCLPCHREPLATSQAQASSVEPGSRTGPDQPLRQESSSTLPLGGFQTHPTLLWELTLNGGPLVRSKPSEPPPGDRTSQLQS

CCOc1ncccc1-c1ccc(N2CCN(C(=O)c3ccc(Cl)cc3C(F)(F)F)C[C@H]2CC)c(C(=O)NCC2CN(C)C2)n1 [Compound 1-223, 5-[(2R)-4-[4-chloro-2-(trifluoromethyl)benzoyl]-2-ethylpiperazin-1-yl]-2′-ethoxy-N-[(1-methylazetidin-3-yl)methyl]-[2,3′-bipyridine]-6-carboxamide]
pKi: > 8.00

CCOc1ncccc1-c1ccc(N2CCN(C(=O)c3ccc(F)cc3C(F)(F)F)C[C@H]2CC)c(C(=O)NCCc2ncc[nH]2)n1 [Compound 1-224, 2′-ethoxy-5-[(2R)-2-ethyl-4-[4-fluoro-2-(trifluoromethyl)benzoyl]piperazin-1-yl]-N-[2-(1H-imidazol-2-yl)ethyl]-[2,3′-bipyridine]-6-carboxamide]
pKi: > 8.00

CCNc1ccc(C(=O)N2CCN(c3ccc(-c4cccnc4OCC)nc3C(=O)NCCNC)[C@H](CC)C2)c(C(F)(F)F)n1 [Compound 1-225, 2′-ethoxy-5-[(2R)-2-ethyl-4-[6-(ethylamino)-2-(trifluoromethyl)pyridine-3-carbonyl]piperazin-1-yl]-N-[2-(methylamino)ethyl]-[2,3′-bipyridine]-6-carboxamide]
pKi: > 8.00

CCOc1ncccc1-c1ccc(N2CCN(C(=O)c3ccc(Cl)cc3C(F)(F)F)C[C@H]2CC)c(C(=O)NCC2=NCCN2)n1 [Compound 1-226, 5-[(2R)-4-[4-chloro-2-(trifluoromethyl)benzoyl]-2-ethylpiperazin-1-yl]-N-[(4,5-dihydro-1H-imidazol-2-yl)methyl]-2′-ethoxy-[2,3′-bipyridine]-6-carboxamide]
pKi: > 8.00

CCOc1ncccc1-c1ccc(N2CCN(C(=O)c3ccc(Cl)cc3C(F)(F)F)C[C@H]2CC)c(C(=O)NCC2=NCCN2C)n1 [Compound 1-227, 5-[(2R)-4-[4-chloro-2-(trifluoromethyl)benzoyl]-2-ethylpiperazin-1-yl]-2′-ethoxy-N-[(1-methyl-4,5-dihydro-1H-imidazol-2-yl)methyl]-[2,3′-bipyridine]-6-carboxamide]
pKi: > 8.00

CCOc1ncccc1-c1ccc(N2CCN(C(=O)c3ccc(Cl)cc3C(F)(F)F)C[C@H]2CC)c(C(=O)NC[C@H]2CCN2C)c1 [Compound 1-228, 2-[(2R)-4-[4-chloro-2-(trifluoromethyl)benzoyl]-2-ethylpiperazin-1-yl]-5-(2-ethoxypyridin-3-yl)-N-{[(2R)-1-methylazetidin-2-yl]methyl}benzamide]
pKi: > 8.00

CCOc1ncccc1-c1ccc(N2CCN(C(=O)c3ccc(Cl)cc3C(F)(F)F)C[C@H]2CC)c(C(=O)NC[C@@H]2CCN2C)c1F [Compound 1-229, 6-[(2R)-4-[4-chloro-2-(trifluoromethyl)benzoyl]-2-ethylpiperazin-1-yl]-3-(2-ethoxypyridin-3-yl)-2-fluoro-N-{[(2S)-1-methylazetidin-2-yl]methyl}benzamide]
pKi: > 8.00

CCOc1ncccc1-c1ccc(N2CCN(C(=O)c3ccc(OC)nc3C(F)(F)F)C[C@H]2CC)c(C(=O)NC2CN(C)C2)n1 [Compound 1-230, 2′-ethoxy-5-[(2R)-2-ethyl-4-[6-methoxy-2-(trifluoromethyl)pyridine-3-carbonyl]piperazin-1-yl]-N-(1-methylazetidin-3-yl)-[2,3′-bipyridine]-6-carboxamide]
pKi: > 8.00

CCOc1ncccc1-c1ccc(N2CCN(C(=O)c3ccc(Cl)cc3C(F)(F)F)C[C@H]2CC)c(C(=O)NC[C@H]2CCN2C)n1 [Compound 1-231, 5-[(2R)-4-[4-chloro-2-(trifluoromethyl)benzoyl]-2-ethylpiperazin-1-yl]-2′-ethoxy-N-{[(2R)-1-methylazetidin-2-yl]methyl}-[2,3′-bipyridine]-6-carboxamide]
pKi: > 8.00

CCOc1ncccc1-c1ccc(N2CCN(C(=O)c3ccc(Cl)cc3C(F)(F)F)C[C@H]2CC)c(C(=O)NC[C@@H]2CCN2C)n1 [Compound 1-232, 5-[(2R)-4-[4-chloro-2-(trifluoromethyl)benzoyl]-2-ethylpiperazin-1-yl]-2′-ethoxy-N-{[(2S)-1-methylazetidin-2-yl]methyl}-[2,3′-bipyridine]-6-carboxamide]
pKi: > 8.00

CCOc1ccc(C(=O)N2CCN(c3ccc(-c4cccnc4OCC)nc3C(=O)NC3CN(C)C3)[C@H](CC)C2)c(C(F)(F)F)n1 [Compound 1-233, 2′-ethoxy-5-[(2R)-4-[6-ethoxy-2-(trifluoromethyl)pyridine-3-carbonyl]-2-ethylpiperazin-1-yl]-N-(1-methylazetidin-3-yl)-[2,3′-bipyridine]-6-carboxamide]
pKi: > 8.00

CCOc1ncccc1-c1ccc(N2CCN(C(=O)c3ccc(Cl)cc3C(F)(F)F)C[C@H]2CC)c(C(=O)NCCc2nccn2C)n1 [Compound 1-234, 5-[(2R)-4-[4-chloro-2-(trifluoromethyl)benzoyl]-2-ethylpiperazin-1-yl]-2′-ethoxy-N-[2-(1-methyl-1H-imidazol-2-yl)ethyl]-[2,3′-bipyridine]-6-carboxamide]
pKi: > 8.00

CCOc1ccccc1-c1ccc(N2CCN(C(=O)c3ccc(OC)nc3C(F)(F)F)C[C@H]2CC)c(C(=O)NC2CN(C)C2)n1 [Compound 1-236, 6-(2-ethoxyphenyl)-3-[(2R)-2-ethyl-4-[6-methoxy-2-(trifluoromethyl)pyridine-3-carbonyl]piperazin-1-yl]-N-(1-methylazetidin-3-yl)pyridine-2-carboxamide]
pKi: > 8.00

CCOc1ccc(C(=O)N2CCN(c3ccc(-c4ccccc4OCC)nc3C(=O)NC3CN(C)C3)[C@H](CC)C2)c(C(F)(F)F)n1 [Compound 1-237, 3-[(2R)-4-[6-ethoxy-2-(trifluoromethyl)pyridine-3-carbonyl]-2-ethylpiperazin-1-yl]-6-(2-ethoxyphenyl)-N-(1-methylazetidin-3-yl)pyridine-2-carboxamide]
pKi: > 8.00

CCOc1ncccc1-c1ccc(N2CCN(C(=O)C3C4CC5CC(C4)CC3C5)C[C@H]2CC)c(C(=O)NC2CN(C)C2)n1 (stereo partly drawn) [Compound 1-238, 5-[(2R)-4-(adamantane-2-carbonyl)-2-ethylpiperazin-1-yl]-2′-ethoxy-N-(1-methylazetidin-3-yl)-[2,3′-bipyridine]-6-carboxamide]
pKi: > 8.00

CCOc1ncccc1-c1ccc(N2CCN(C(=O)c3ccc(OC)nc3C(F)(F)F)C[C@H]2CC)c(C(=O)N[C@@H]2CCN(C)C2)n1 [Compound 1-239, 2′-ethoxy-5-[(2R)-2-ethyl-4-[6-methoxy-2-(trifluoromethyl)pyridine-3-carbonyl]piperazin-1-yl]-N-[(3R)-1-methylpyrrolidin-3-yl]-[2,3′-bipyridine]-6-carboxamide]
pKi: > 8.00

CCOc1ncccc1-c1ccc(N2CCN(C(=O)c3ccc(OC)nc3C(F)(F)F)C[C@H]2CC)c(C(=O)N[C@@H]2CCNC2)n1 [Compound 1-240, 2′-ethoxy-5-[(2R)-2-ethyl-4-[6-methoxy-2-(trifluoromethyl)pyridine-3-carbonyl]piperazin-1-yl]-N-[(3R)-pyrrolidin-3-yl]-[2,3′-bipyridine]-6-carboxamide]
pKi: > 8.00

CCOc1ncccc1-c1ccc(N2CCN(C(=O)C3(C(F)(F)F)CCCC3)C[C@H]2CC)c(C(=O)NC2CN(C)C2)n1 [Compound 1-241, 2′-ethoxy-5-[(2R)-2-ethyl-4-[1-(trifluoromethyl)cyclopentanecarbonyl]piperazin-1-yl]-N-(1-methylazetidin-3-yl)-[2,3′-bipyridine]-6-carboxamide]
pKi: > 8.00

CCOc1ncccc1-c1ccc(N2CCN(C(=O)c3ccc(OC)nc3C(F)(F)F)C[C@H]2CC)c(C(=O)NCC2CN(C)C2)n1 [Compound 1-242, 2′-ethoxy-5-[(2R)-2-ethyl-4-[6-methoxy-2-(trifluoromethyl)pyridine-3-carbonyl]piperazin-1-yl]-N-[(1-methylazetidin-3-yl)methyl]-[2,3′-bipyridine]-6-carboxamide]
pKi: > 8.00

CCOc1ccc(C(=O)N2CCN(c3ccc(-c4cccnc4OCC)nc3C(=O)N[C@@H]3CCN(C)C3)[C@H](CC)C2)c(C(F)(F)F)n1 [Compound 1-243, 2′-ethoxy-5-[(2R)-4-[6-ethoxy-2-(trifluoromethyl)pyridine-3-carbonyl]-2-ethylpiperazin-1-yl]-N-[(3R)-1-methylpyrrolidin-3-yl]-[2,3′-bipyridine]-6-carboxamide]
pKi: > 8.00

CCOc1ncccc1-c1ccc(N2CCN(C(=O)c3ccc(OC)nc3C(F)(F)F)C[C@H]2CC)c(C(=O)NC[C@@H]2CCN2)n1 [Compound 1-244, N-{[(2S)-azetidin-2-yl]methyl}-2′-ethoxy-5-[(2R)-2-ethyl-4-[6-methoxy-2-(trifluoromethyl)pyridine-3-carbonyl]piperazin-1-yl]-[2,3′-bipyridine]-6-carboxamide]
pKi: > 8.00

CCOc1ncccc1-c1ccc(N2CCN(C(=O)c3ccc(OC)nc3C(F)(F)F)C[C@H]2CC)c(C(=O)NC[C@@H]2CCN2C)n1 [Compound 1-245, 2′-ethoxy-5-[(2R)-2-ethyl-4-[6-methoxy-2-(trifluoromethyl)pyridine-3-carbonyl]piperazin-1-yl]-N-{[(2S)-1-methylazetidin-2-yl]methyl}-[2,3′-bipyridine]-6-carboxamide]
pKi: > 8.00

CC[C@@H]1CN(C(=O)c2ccc(OC)nc2C(F)(F)F)CCN1c1ccc(-c2cccnc2OC)nc1C(=O)NC1CN(C)C1 [Compound 1-246, 5-[(2R)-2-ethyl-4-[6-methoxy-2-(trifluoromethyl)pyridine-3-carbonyl]piperazin-1-yl]-2′-methoxy-N-(1-methylazetidin-3-yl)-[2,3′-bipyridine]-6-carboxamide]
pKi: > 8.00

CCOc1ccc(C(=O)N2CCN(c3ccc(-c4cccnc4OC)nc3C(=O)NC3CN(C)C3)[C@H](CC)C2)c(C(F)(F)F)n1 [Compound 1-247, 5-[(2R)-4-[6-ethoxy-2-(trifluoromethyl)pyridine-3-carbonyl]-2-ethylpiperazin-1-yl]-2′-methoxy-N-(1-methylazetidin-3-yl)-[2,3′-bipyridine]-6-carboxamide]
pKi: > 8.00
